Data published in patent US20260232682A1, “GSPT1 DEGRADER COMPOUNDS” (Captor Therapeutics S.A., priority 2023, published 2026).

Experiments:
[1] = molecular target: CRBN/DDB1 protein complex (Homo sapiens, UniProt Q96SW2); assay: CRBN displacement TR-FRET assay; settings: Thalidomide-Red tracer, 6×His-CRBN/DDB1; read-out: CRBN binding Ki
Method in brief: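 Test compound at various concentrations competed with 6.8 nM Thalidomide-Red tracer for 5 nM 6×His-CRBN/DDB1, detected with 0.5 nM anti-His-Eu cryptate in buffer with 1 mM DTT and 1% DMSO. Incubation ran 180 min at room temperature with a time-resolved fluorescence read-out. IC50 values were converted to Ki by Cheng–Prusoff using tracer Kd and protein and tracer concentrations.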

[2] = molecular target: [GSPT1]-[compound of formula (I)]-[CRBN/DDB1] complex (Homo sapiens, UniProt P15170+Q96SW2); assay: AlphaLISA ternary complex formation assay (GSPT1); type: binding; settings: 0.5 h; 1 μM compound; normalized to reference compound CC-885; read-out: Normalized AlphaLISA ternary complex average signal at 1 μM molecule
Method in brief: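 Biotinylated GSPT1 on streptavidin donor beads and 6×His-CRBN/DDB1 on anti-His acceptor beads (each 200 nM before mixing) in HBS pH 7.4 with 0.1% Tween-20 and 1 mM DTT, 2% DMSO final, 30 min at 25 °C. AlphaLISA luminescence is normalized between DMSO background and the reference compound's maximum.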

[3] = molecular target: T1, [SALL4 ZF2]-[compound]-[CRBN/DDB1] ternary complex (Homo sapiens, UniProt Q96SW2+Q9UJQ4); assay: AlphaLISA assay for off-target recruitment detection, SALL4 ZF2; type: binding; settings: 1 μM compound; normalized to Lenalidomide; read-out: Normalized ternary complex response, SALL4 ZF2
T1 construct: SALL4 ZF2
Method in brief: (§1)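 Neo-substrate with 40 μg/ml donor beads and 200 nM 6×His-CRBN/DDB1 with 40 μg/ml anti-His acceptor beads were each prepared in PBS pH 7.4 with Tween-20 and 1 mM DTT, preincubated 30 min at RT, then mixed. Compounds at 2% DMSO were incubated 30 min at 25 °C, read at 680/615 nm, and normalised between DMSO background and reference glue maximum.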

[4] = molecular target: T2, [IKZF1 ZF2]-[compound]-[CRBN/DDB1] ternary complex (Homo sapiens, UniProt Q13422+Q96SW2); assay: AlphaLISA assay for off-target recruitment detection, IKZF1 ZF2; type: binding; settings: 1 μM compound; normalized to Lenalidomide; read-out: Normalized ternary complex response, IKZF1 ZF2
T2 construct: IKZF1 ZF2
Method in brief: as §1

[5] = molecular target: T3, [IKZF2 ZF2]-[compound]-[CRBN/DDB1] ternary complex (Homo sapiens, UniProt Q96SW2+Q9UKS7); assay: AlphaLISA assay for off-target recruitment detection, IKZF2 ZF2; type: binding; settings: 1 μM compound; normalized to Helios modulator; read-out: Normalized ternary complex response, IKZF2 ZF2
T3 construct: IKZF2 ZF2
Method in brief: as §1

GSPT1-HiBiT HEK293 cells = assay: Cell Viability-CTG assay accompanying the Nano-Glo HiBiT assay; type: cell-based; settings: 6 hours treatment, viability of GSPT1-HiBiT HEK293 cells
Experimental: In parallel, the Cell Viability-CTG assay was performed to ensure that the potential decrease of the luminescent signal observed in the Nano-Glo HiBiT assay is a result of protein degradation and not a result of decreasing cell viability. For CTG assay accompanying the Nano-Glo HiBiT assay, cells were cultured, seeded and treated as described above. After 6 hours of incubation (37° C., 5% CO2), plates were removed from the incubator and let to equilibrate to RT. Luminescent signal detection was conducted using the CellTiter-Glo Lumiescent Cell Viability Assay (Promega, cat. nr G7573). 10 μL of the Cell Titer Glo reagent was added per well, plates were shaken to facilitate lysis (460 rpm, 4 min, RT) and incubated in the dark for the following 8 min. Luminescence was read using the CLARIOstar multimode plate reader (BMG LABTECH). The raw data (the relative luminescence unit values, RLU) were uploaded under the relevant protocol and analysed in CDDVault data management platform, in a manner similar to the description above. The Mean Minimum values were calculated in CDDVault using non-linear regression and appropriate equations.

T2 sequence (Q13422 145-167 limits assumed): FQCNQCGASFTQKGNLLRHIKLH
T2 sequence (Q96SW2 whole entry): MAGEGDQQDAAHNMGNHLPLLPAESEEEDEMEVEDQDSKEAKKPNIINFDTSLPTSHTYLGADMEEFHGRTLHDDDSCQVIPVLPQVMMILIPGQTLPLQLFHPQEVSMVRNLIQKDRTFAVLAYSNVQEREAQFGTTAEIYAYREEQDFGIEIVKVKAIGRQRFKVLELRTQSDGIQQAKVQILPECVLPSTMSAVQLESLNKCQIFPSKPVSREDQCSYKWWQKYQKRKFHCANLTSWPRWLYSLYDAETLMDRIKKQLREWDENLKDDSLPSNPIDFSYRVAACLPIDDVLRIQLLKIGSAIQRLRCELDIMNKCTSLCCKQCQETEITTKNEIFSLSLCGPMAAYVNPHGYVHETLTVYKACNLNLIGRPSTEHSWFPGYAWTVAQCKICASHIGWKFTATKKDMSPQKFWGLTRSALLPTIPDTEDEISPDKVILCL
T2 sequence (Q16531 whole entry partner): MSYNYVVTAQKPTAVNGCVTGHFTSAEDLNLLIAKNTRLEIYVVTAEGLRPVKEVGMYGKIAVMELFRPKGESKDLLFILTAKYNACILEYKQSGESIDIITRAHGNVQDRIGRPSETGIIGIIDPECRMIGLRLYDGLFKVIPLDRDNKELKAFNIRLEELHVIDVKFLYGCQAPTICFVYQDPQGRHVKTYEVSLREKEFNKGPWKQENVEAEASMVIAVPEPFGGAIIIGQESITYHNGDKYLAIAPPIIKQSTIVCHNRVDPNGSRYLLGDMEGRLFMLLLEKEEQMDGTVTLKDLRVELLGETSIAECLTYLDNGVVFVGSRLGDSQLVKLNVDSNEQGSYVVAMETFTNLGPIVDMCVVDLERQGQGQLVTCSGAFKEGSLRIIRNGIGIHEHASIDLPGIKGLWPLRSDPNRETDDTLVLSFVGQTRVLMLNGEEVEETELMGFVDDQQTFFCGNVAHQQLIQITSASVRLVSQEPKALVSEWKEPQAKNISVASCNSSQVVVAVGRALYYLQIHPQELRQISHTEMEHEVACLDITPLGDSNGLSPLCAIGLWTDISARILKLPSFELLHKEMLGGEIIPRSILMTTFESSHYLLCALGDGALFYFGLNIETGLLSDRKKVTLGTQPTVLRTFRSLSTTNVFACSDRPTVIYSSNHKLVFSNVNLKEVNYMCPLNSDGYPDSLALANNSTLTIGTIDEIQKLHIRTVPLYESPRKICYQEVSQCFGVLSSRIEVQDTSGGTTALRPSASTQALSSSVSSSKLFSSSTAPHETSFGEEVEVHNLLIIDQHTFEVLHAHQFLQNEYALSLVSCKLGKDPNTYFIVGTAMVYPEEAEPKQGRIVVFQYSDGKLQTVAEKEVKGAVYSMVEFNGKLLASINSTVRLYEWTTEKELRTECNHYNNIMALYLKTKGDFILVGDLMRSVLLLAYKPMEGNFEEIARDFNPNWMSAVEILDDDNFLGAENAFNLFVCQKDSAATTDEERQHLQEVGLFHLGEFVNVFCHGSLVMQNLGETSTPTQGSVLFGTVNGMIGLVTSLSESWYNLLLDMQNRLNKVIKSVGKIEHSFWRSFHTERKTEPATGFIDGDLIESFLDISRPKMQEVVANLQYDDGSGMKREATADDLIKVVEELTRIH
CRBN/DDB1 protein complex, sequence (Q96SW2 whole entry, species assumed): as the sequence (Q96SW2 whole entry) above
CRBN/DDB1 protein complex, sequence (Q16531 whole entry partner, species assumed): as the sequence (Q16531 whole entry partner) above
[GSPT1]-[compound of formula (I)]-[CRBN/DDB1] complex, sequence (P15170 whole entry): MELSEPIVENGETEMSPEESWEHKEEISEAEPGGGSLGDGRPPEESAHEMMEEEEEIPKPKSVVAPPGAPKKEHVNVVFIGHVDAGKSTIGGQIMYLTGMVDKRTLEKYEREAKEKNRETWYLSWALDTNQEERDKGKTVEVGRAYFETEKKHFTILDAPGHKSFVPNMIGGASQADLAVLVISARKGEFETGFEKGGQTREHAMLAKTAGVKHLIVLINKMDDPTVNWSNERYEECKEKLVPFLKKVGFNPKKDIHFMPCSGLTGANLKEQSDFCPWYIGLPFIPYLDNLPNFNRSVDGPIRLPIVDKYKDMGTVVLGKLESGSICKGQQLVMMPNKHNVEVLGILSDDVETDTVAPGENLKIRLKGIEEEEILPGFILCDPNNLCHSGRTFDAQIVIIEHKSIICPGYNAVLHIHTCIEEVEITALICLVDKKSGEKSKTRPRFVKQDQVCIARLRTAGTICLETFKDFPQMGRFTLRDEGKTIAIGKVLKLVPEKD
[GSPT1]-[compound of formula (I)]-[CRBN/DDB1] complex, sequence (Q96SW2 whole entry): as the sequence (Q96SW2 whole entry) above
[GSPT1]-[compound of formula (I)]-[CRBN/DDB1] complex, sequence (Q16531 whole entry partner): as the sequence (Q16531 whole entry partner) above
T3 sequence (Q9UKS7 140-162 limits assumed): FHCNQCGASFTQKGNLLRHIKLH
T3 sequence (Q96SW2 whole entry): as the sequence (Q96SW2 whole entry) above
T3 sequence (Q16531 whole entry partner): as the sequence (Q16531 whole entry partner) above
T1 sequence (Q9UJQ4 410-432 limits assumed): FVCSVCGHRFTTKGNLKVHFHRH
T1 sequence (Q96SW2 whole entry): as the sequence (Q96SW2 whole entry) above
T1 sequence (Q16531 whole entry partner): as the sequence (Q16531 whole entry partner) above

Row | Compound | Ki [1] | activation at 1 µM [2] | activation at 1 µM [3] | activation at 1 µM [4] | activation at 1 µM [5] | CTG assay Mean minimum (GSPT1-HiBiT HEK293 cells)
1 | Cc1ccc(NC(=O)OCc2ccc3c(C)c(C4CCC(=O)NC4=O)c(C)nc3c2)cc1Cl (stereo not drawn) [Compound 44, (3-(2,6-dioxopiperidin-3-yl)-2,4-dimethylquinolin-7-yl)methyl (3-chloro-4-methylphenyl)carbamate] | < 0.5 µM | 10 to 50% | < 10% | < 10% | < 10% | ++++ (++++≥75% of viability of the HiBiT-GSPT1 HEK293 cells)
2 | Cc1ccc(NC(=O)OCc2ccc3cc(C4CCC(=O)NC4=O)c(C)nc3c2F)cc1Cl (stereo not drawn) [Compound 50, (3-(2,6-dioxopiperidin-3-yl)-8-fluoro-2-methylquinolin-7-yl)methyl (3-chloro-4-methylphenyl)carbamate] | 0.5 to 1 µM | > 50% | < 10% | < 10% | < 10% | ++++ (++++≥75% of viability of the HiBiT-GSPT1 HEK293 cells)
3 | Cc1ccc(NC(=O)OCc2ccc3cc(C4CCC(=O)NC4=O)c(C)nc3c2)c(Cl)c1Cl (stereo not drawn) [Compound 54, (3-(2,6-dioxopiperidin-3-yl)-2-methylquinolin-7-yl)methyl (2,3-dichloro-4-methylphenyl)carbamate] | 0.5 to 1 µM | > 50% | < 10% | < 10% | < 10% | ++++ (++++≥75% of viability of the HiBiT-GSPT1 HEK293 cells)
4 | Cc1nc2cc(CNC(=O)Nc3cc(C(C)(C)C)no3)ccc2cc1N1CCC(=O)NC1=O [Compound 64, 1-(3-(tert-butyl)isoxazol-5-yl)-3-((3-(2,4-dioxotetrahydropyrimidin-1(2H)-yl)-2-methylquinolin-7-yl)methyl)urea] | < 0.5 µM | 10 to 50% | < 10% | < 10% | < 10% | ++++ (++++≥75% of viability of the HiBiT-GSPT1 HEK293 cells)
5 | Cc1nc2ccc(COC(=O)Nc3cc(C(C)(C)C)no3)cc2cc1N1CCC(=O)NC1=O [Compound 66, (3-(2,4-dioxotetrahydropyrimidin-1(2H)-yl)-2-methylquinolin-6-yl)methyl (3-(tert-butyl)isoxazol-5-yl)carbamate] | < 0.5 µM | > 50% | 25 to 50% | 25 to 50% | 10 to 25% | ++++ (++++≥75% of viability of the HiBiT-GSPT1 HEK293 cells)
6 | Cc1nc2cc(COC(=O)Nc3cc(C(F)(F)F)n[nH]3)ccc2cc1C1CCC(=O)NC1=O (stereo not drawn) [Compound 69, (3-(2,6-dioxopiperidin-3-yl)-2-methylquinolin-7-yl)methyl (3-(trifluoromethyl)-1H-pyrazol-5-yl)carbamate] | > 1 µM | > 50% | < 10% | < 10% | < 10% | ++++ (++++≥75% of viability of the HiBiT-GSPT1 HEK293 cells)
7 | Cc1nc2cc(COC(=O)Nc3cc(C(C)(C)C)on3)ccc2cc1C1CCC(=O)NC1=O (stereo not drawn) [Compound 70, (3-(2,6-dioxopiperidin-3-yl)-2-methylquinolin-7-yl)methyl (5-(tert-butyl)isoxazol-3-yl)carbamate] | < 0.5 µM | > 50% | < 10% | < 10% | < 10% | ++++ (++++≥75% of viability of the HiBiT-GSPT1 HEK293 cells)

Now from value to molecule, other results behind:

Row | Ki [1] | activation at 1 µM [2] | activation at 1 µM [3] | activation at 1 µM [4] | activation at 1 µM [5] | Compound | CTG assay Mean minimum (GSPT1-HiBiT HEK293 cells)
8 | > 1 µM | 10 to 50% | < 10% | < 10% | < 10% | COc1ccc(NC(=O)OCc2ccc3cc(C4CCC(=O)NC4=O)c(C)nc3c2)nn1 (stereo not drawn) [Compound 45, (3-(2,6-dioxopiperidin-3-yl)-2-methylquinolin-7-yl)methyl (6-methoxypyridazin-3-yl)carbamate] | ++++ (++++≥75% of viability of the HiBiT-GSPT1 HEK293 cells)
9 | 0.5 to 1 µM | 10 to 50% | < 10% | < 10% | < 10% | Cc1nc2cc(COC(=O)Nc3cccc(-c4ccccc4)c3)ccc2cc1C1CCC(=O)NC1=O (stereo not drawn) [Compound 46, (3-(2,6-dioxopiperidin-3-yl)-2-methylquinolin-7-yl)methyl [1,1′-biphenyl]-3-ylcarbamate] | ++++ (++++≥75% of viability of the HiBiT-GSPT1 HEK293 cells)
10 | > 1 µM | 10 to 50% | < 10% | < 10% | < 10% | Cc1ccc(NC(=O)OCc2cc3nc(C)c(C4CCC(=O)NC4=O)cc3cc2F)cc1Cl (stereo not drawn) [Compound 49, (3-(2,6-dioxopiperidin-3-yl)-6-fluoro-2-methylquinolin-7-yl)methyl (3-chloro-4-methylphenyl)carbamate] | ++++ (++++≥75% of viability of the HiBiT-GSPT1 HEK293 cells)
11 | < 0.5 µM | 10 to 50% | ≥ 50% | 25 to 50% | 10 to 25% | Cc1ccc(NC(=O)NCc2ccc3nc(C)c(N4CCC(=O)NC4=O)cc3c2)cc1Cl [Compound 51, 1-(3-chloro-4-methylphenyl)-3-((3-(2,4-dioxotetrahydropyrimidin-1(2H)-yl)-2-methylquinolin-6-yl)methyl)urea] | ++++ (++++≥75% of viability of the HiBiT-GSPT1 HEK293 cells)
12 | 0.5 to 1 µM | > 50% | < 10% | < 10% | < 10% | Cc1nc2cc(COC(=O)NC3CCC(C(C)(C)C)CC3)ccc2cc1C1CCC(=O)NC1=O (stereo not drawn) [Compound 55, (3-(2,6-dioxopiperidin-3-yl)-2-methylquinolin-7-yl)methyl (4-(tert-butyl)cyclohexyl)carbamate] | ++++ (++++≥75% of viability of the HiBiT-GSPT1 HEK293 cells)
13 | 0.5 to 1 µM | > 50% | < 10% | < 10% | < 10% | Cc1ncc(NC(=O)OCc2ccc3cc(C4CCC(=O)NC4=O)c(C)nc3c2)cc1Cl (stereo not drawn) [Compound 58, (3-(2,6-dioxopiperidin-3-yl)-2-methylquinolin-7-yl)methyl (5-chloro-6-methylpyridin-3-yl)carbamate] | ++++ (++++≥75% of viability of the HiBiT-GSPT1 HEK293 cells)
14 | < 0.5 µM | > 50% | < 10% | < 10% | < 10% | COc1cnc(NC(=O)OCc2ccc3cc(C4CCC(=O)NC4=O)c(C)nc3c2)cn1 (stereo not drawn) [Compound 59, (3-(2,6-dioxopiperidin-3-yl)-2-methylquinolin-7-yl)methyl (5-methoxypyrazin-2-yl)carbamate] | ++++ (++++≥75% of viability of the HiBiT-GSPT1 HEK293 cells)
15 | < 0.5 µM | > 50% | 25 to 50% | ≥ 50% | 25 to 50% | Cc1nc2ccc(CNC(=O)Nc3cc(C(C)(C)C)no3)cc2cc1N1CCC(=O)NC1=O [Compound 67, 1-(3-(tert-butyl)isoxazol-5-yl)-3-((3-(2,4-dioxotetrahydropyrimidin-1(2H)-yl)-2-methylquinolin-6-yl)methyl)urea] | ++++ (++++≥75% of viability of the HiBiT-GSPT1 HEK293 cells)
